Assay results from US8097733B2, “Pyrazole derivatives as 5-LO-inhibitors” (Pfizer Inc., priority 2007, dated 2012).

Key:
recombinant human 5-LOX = target: T1, recombinant human 5-LOX (Homo sapiens, UniProt P09917); test: Fluorescence Intensity 5-LOX Enzyme Assay; format: biochemical; conditions: crude lysate of recombinant human 5-LOX; highest inhibitor concentration tested typically 25 μM
T1 sequence (P09917 1-674): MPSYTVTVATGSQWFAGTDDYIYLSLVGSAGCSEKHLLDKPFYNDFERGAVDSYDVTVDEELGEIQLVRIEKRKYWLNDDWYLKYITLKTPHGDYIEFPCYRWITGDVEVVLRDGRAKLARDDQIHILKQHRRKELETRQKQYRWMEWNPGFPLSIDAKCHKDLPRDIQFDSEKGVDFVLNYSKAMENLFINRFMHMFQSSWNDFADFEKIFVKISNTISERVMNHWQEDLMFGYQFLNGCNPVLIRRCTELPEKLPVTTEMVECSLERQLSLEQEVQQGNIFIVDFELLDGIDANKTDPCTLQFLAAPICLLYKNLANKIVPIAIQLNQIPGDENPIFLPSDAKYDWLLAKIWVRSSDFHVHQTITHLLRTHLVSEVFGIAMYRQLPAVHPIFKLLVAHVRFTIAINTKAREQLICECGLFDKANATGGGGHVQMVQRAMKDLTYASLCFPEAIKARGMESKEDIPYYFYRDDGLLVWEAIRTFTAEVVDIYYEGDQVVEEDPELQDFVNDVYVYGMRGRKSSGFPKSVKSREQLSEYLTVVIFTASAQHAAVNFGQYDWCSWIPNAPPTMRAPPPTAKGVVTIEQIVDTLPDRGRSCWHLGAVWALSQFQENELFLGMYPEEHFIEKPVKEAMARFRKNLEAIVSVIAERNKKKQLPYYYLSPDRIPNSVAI
From the text: Bio Data Assays for Allergic and Non Allergic Airways Diseases Fluorescence Intensity 5-LOX Enzyme Assay
The enzyme assay is based on the oxidation of the non-fluorescent compound 2′7′-dichlorodihydrofluorescein diacetate (H2DCFDA) to the fluorescent 2′,7′-dichlorofluorescein by 5-LOX in an arachidonic acid-dependent reaction. Ester cleavage of the acetate groups of the substrate H2DCFDA must occur prior to oxidation. This is achieved through use of a crude cell lysate preparation of recombinant human 5-LOX. The enzyme assay ([…]) contained 50 mM Tris (pH 7.5), 2 mM CaCl2, 2 mM EDTA, 3 μM arachidonic acid (Nu-Chek Prep; #S-1133), 10 μM ATP, 10 μM H2DCFDA (Invitrogen; #D399), inhibitor (varying concentration) and recombinant human 5-LOX enzyme (1.25 μL crude lysate per well).
Inhibitors (dissolved in DMSO) were plated into a 384-well assay plate (Corning #3654) at 1 μL followed by a 20 μL addition of a solution containing 5-LO enzyme and H2DCFDA. Enzyme and H2DCFDA were pre-incubated for 5 min to allow time for acetate group cleavage of the dye prior to addition to the assay plate. After a 10 min pre-incubation of inhibitor and enzyme/dye mix, the assay was initiated by the addition of a substrate solution containing arachidonic acid and ATP. The enzymatic reaction was run for 20 min at room temperature and terminated by the addition of 40 μL of acetonitrile. Assay plates were read in a plate reader using standard wavelengths for fluorescein. IC50s of inhibitors were calculated using a 4-parameter fit using 7 inhibitor concentrations in duplicate with 3-fold serial dilutions. Controls on each plate included no inhibitor (zero percent effect) and 25 μM C J-13610 (one hundred percent effect). The highest inhibitor concentration tested was typically 25 μM. The final DMSO concentration in the assay was 2.5%.

[1] = test system: human whole blood (leukotriene and prostaglandin levels); test: Eicosanoid production from human whole blood; format: cell-based; conditions: human whole blood stimulated with calcium ionophore A23187 and arachidonic acid; ELISA
Experimental: Human whole blood is collected in 10 ml heparin tubes (Vacutainer, Becton Dickenson). Collected blood is pooled and 80 μL is dispensed into each well of 384 well polypropylene plates. A PlateMate is used to add 2 μL of compound solution in DMSO to the 80 μL of blood in the polypropylene plates. The plate, with blood and compound added, is incubated at room temperature for 10 minutes. 2 μL of a calcimycin (800 ng/ml) (A23187 C-7522, Sigma) and arachidonic acid (30 μM) (NU-Chek PREP, INC. S-1133) solution in 60% ethanol is then added to the blood using a Micromultidrop. The plates are then incubated at 37° C. in a shallow water bath for 15 minutes. Plates are then spun at 800 g for 10 minutes at 4° C. Supernatant is removed and assayed by Elisa (Caymen Chemical).
Eicosanoid Production from Human Whole Blood:
Human whole blood was collected from healthy or asthmatic human donors in 10 ml heparinized tubes (Vacutainer tubes; Becton Dickenson, Franklin Lakes, N.J.). Collected blood was pooled and 80 μL was dispensed into each well of 384 well polypropylene plates using a Multi-prop™ 384-well dispenser (Titertek, Huntsville, Ala.). Varying concentrations of compounds were dissolved in DMSO then 2 μL/well was added to the blood using a PlateMate Plus™ automated pipetting station (Matrix Technologies, Hudson, N.H.). The compounds were preincubated with the blood at room temperature for 10 minutes followed by stimulation with 40 μM calcium ionophore (A23187, Sigma Chemical Co, St. Louis, Mo., Cat. # C-7522) and 30 μM arachidonic acid (S-1133, NU-Chek PREP, Inc., Elysian, MN, Cat. # S-1133) dissolved in 60% ethanol. After 15 min incubation at 37° C. in a shallow water bath, the blood was centrifuged at 8009 for 10 minutes at 4° C., the supernatants collected, and leukotriene and prostaglandin levels measured by ELISA according to the manufacturer's directions (Cayman Chemical Company, Ann Arbor, Mich.). The assay was performed at a final concentration of 2.5% DMSO.

SMILES	IC50 (recombinant human 5-LOX)	IC50 [1]
Cc1cc(Sc2cccc(C3(C(N)=O)CCOCC3)c2)ccc1-c1ccnn1C [Example 14, 4-(3-{[3-methyl-4-(1-methyl-1H-pyrazol-5-yl)phenyl]thio}phenyl)tetrahydro-2H-pyran-4-carboxamide]	110 nM	447 nM
CNC(=O)C1(c2cc(F)cc(Sc3ccc(-c4ccnn4C)cc3)c2)CCOCC1 [Example 18, 4-(3-fluoro-5-{[4-(1-methyl-1H-pyrazol-5-yl)phenyl]thio}-phenyl)-N-methyltetrahydro-2H-pyran-4-carboxamide]	369 nM	596 nM
C[C@H]1C[C@@](C#N)(c2cccc(Sc3ccc(-c4ccnn4C)cc3F)c2F)CCO1 [Example 25]	32.9 nM	83.6 nM
C[C@H]1C[C@@](C(N)=O)(c2cccc(Sc3ccc(-c4ccnn4C)cc3F)c2F)CCO1 [Example 26, (2S,4R)-4-(2-fluoro-3-(2-fluoro-4-(1-methyl-1H-pyrazol-5-yl)phenylthio)phenyl)-2-methyl-tetrahydro-2H-pyran-4-carboxamide]	28.4 nM	690 nM
C[C@H]1C[C@@](C(N)=O)(c2cc(F)cc(Sc3ccc(-c4ccnn4C)c(F)c3)c2)CCO1 [Example 32, (2S,4R)-4-(3-fluoro-5-(3-fluoro-4-(1-methyl-1H-pyrazol-5-yl)phenylthio)phenyl)-2-methyl-tetrahydro-2H-pyran-4-carboxamide]	16.8 nM	232 nM
Cn1nccc1Cc1ccc(Sc2cccc(C3(C(N)=O)CCOCC3)c2)cc1 [Example 35, 4-[3-({4-[(1-methyl-1H-pyrazol-5-yl)methyl]phenyl}thio)phenyl]tetrahydro-2H-pyran-4-carboxamide]	313 nM	769 nM
Cn1nccc1C(=O)c1ccc(Sc2cccc(C3(C(N)=O)CCOCC3)c2)cc1C(F)(F)F [Example 37, 4-[3-({4-[(1-methyl-1H-pyrazol-5-yl)carbonyl]-3-(trifluoromethyl)phenyl}thio)phenyl]tetrahydro-2H-pyran-4-carboxamide]	60.7 nM	394 nM
Cn1nccc1C(=O)c1ncc(Sc2cccc(C3(C(N)=O)CCOCC3)c2)cc1Cl [Example 42, 4-(3-(5-chloro-6-(1-methyl-1H-pyrazole-5-carbonyl)pyridin-3-ylthio)phenyl)-tetrahydro-2H-pyran-4-carboxamide]	737 nM	851 nM
C[C@H]1C[C@@](C#N)(c2cccc([S+]([O-])c3ccc(-c4ccnn4C)cc3)c2F)CCO1 (stereo partly drawn) [Example 54, (2S,4R)-4-(2-fluoro-3-(4-(1-methyl-1H-pyrazol-5-yl)phenylsulfinyl)phenyl)-2-methyl-tetrahydro-2H-pyran-4-carbonitrile]	447 nM	1160 nM

Now from value to compound:

IC50 (recombinant human 5-LOX)	IC50 [1]	SMILES
14 nM	200 nM	C[C@H]1C[C@@](C(N)=O)(c2cccc(Sc3ccc(-c4ccnn4C)c(F)c3)c2)CCO1 [Example 30, (2S,4R)-4-(3-(3-fluoro-4-(1-methyl-1H-pyrazol-5-yl)phenylthio)phenyl)-2-methyl-tetrahydro-2H-pyran-4-carboxamide]
15.5 nM	337 nM	C[C@H]1C[C@@](C(N)=O)(c2cccc(Sc3ccc(-c4ccnn4C)c(F)c3)c2F)CCO1 [Example 31, (2S,4R)-4-(2-fluoro-3-(3-fluoro-4-(1-methyl-1H-pyrazol-5-yl)phenylthio)phenyl)-2-methyl-tetrahydro-2H-pyran-4-carboxamide]
188 nM	466 nM	Cn1nccc1C(=O)c1ccc(Sc2cccc(C3(C(N)=O)CCOCC3)c2)cc1Cl [Example 36]
469 nM	640 nM	Cn1nccc1C(=O)c1ccc(Sc2cccc(C3(C(N)=O)CCOCC3)c2)cc1C#N [Example 38, 4-[3-({3-cyano-4-[(1-methyl-1H-pyrazol-5-yl)carbonyl]phenyl}thio)phenyl]tetrahydro-2H-pyran-4-carboxamide]
575 nM	913 nM	COc1ccc(C2(C#N)CCOCC2)cc1Sc1ccc(-c2ccnn2C)cc1 [Example 43, 4-(4-methoxy-3-(4-(1-methyl-1H-pyrazol-5-yl)phenylthio)phenyl)-tetrahydro-2H-pyran-4-carbonitrile]
138 nM	866 nM	COc1ccc(C2(C(N)=O)CCOCC2)cc1Sc1ccc(-c2ccnn2C)cc1 [Example 44, 4-(4-methoxy-3-(4-(1-methyl-1H-pyrazol-5-yl)phenylthio)phenyl)-tetrahydro-2H-pyran-4-carboxamide]
84 nM	33 nM	Cn1nccc1-c1ccc(Sc2cccc(C3(C#N)CCOCC3)c2F)c(F)c1 [Example 45, 4-(2-fluoro-3-(2-fluoro-4-(1-methyl-1H-pyrazol-5-yl)phenylthio)phenyl)tetrahydro-2H-pyran-4-carbonitrile]
7770 nM	676 nM	Cn1nccc1-c1ncc(Sc2cccc(C3(C#N)CCOCC3)c2)cc1Cl [Example 47, 4-(3-{[5-chloro-6-(1-methyl-1H-pyrazol-5-yl)pyridin-3-yl]thio}phenyl)tetrahydro-2H-pyran-4-carbonitrile]
2710 nM	999 nM	Cn1nccc1-c1ccc(Sc2cccc(C3(C#N)CCOCC3)c2)cc1 [Example 49, 4-(3-{[4-(1-methyl-1H-pyrazol-5-yl)phenyl]thio}phenyl)tetrahydro-2H-pyran-4-carbonitrile]
816 nM	890 nM	CCc1cn[nH]c1-c1ccc(Sc2cccc(C3(C(N)=O)CCOCC3)c2)cc1 [Example 59, 4-(3-{[4-(4-ethyl-1H-pyrazol-5-yl)phenyl]thio}phenyl)tetrahydro-2H-pyran-4-carboxamide]
608 nM	1400 nM	NC(=O)C1(c2cccc(Sc3ccc(-c4[nH]ncc4Br)cc3)c2)CCOCC1 [Example 60, 4-(3-{[4-(4-bromo-1H-pyrazol-5-yl)phenyl]thio}phenyl)tetrahydro-2H-pyran-4-carboxamide]
327 nM	2160 nM	Cn1nccc1Oc1ncc(Sc2cccc(C3(C(N)=O)CCOCC3)c2F)cc1Cl [Example 61, 4-[3-({5-chloro-6-[(1-methyl-1H-pyrazol-5-yl)oxy]pyridin-3-yl}thio)-2-fluorophenyl]tetrahydro-2H-pyran-4-carboxamide]
2160 nM	1490 nM	Cn1nccc1C(=O)c1ccc(Sc2cccc(C3(C#N)CCOCC3)c2)cc1 [Example 62, 4-[3-({4-[(1-methyl-1H-pyrazol-5-yl)carbonyl]phenyl}thio)phenyl]tetrahydro-2H-pyran-4-carbonitrile]
